From patent publication US20160375006A1, “USES OF PARALOG-SELECTIVE INHIBITORS OF GSK3 KINASES” (priority 2012, published 2016)
Where two headings read alike, the source gives them in different places.

Legend:
MLK3_Cascade = MLK3_Cascade (Homo sapiens, UniProt Q16584)
Procedure: (§1) This was completed utilizing one of two assays depending on the kinase being examined.
(§2) A solution of IMAP binding reagent (IMAP Screening Express kit; Molecular Devices) (60 μL) was added to each well and incubated for 30 minutes.
(§3) A solution of termination buffer (QuickScout Screening assist MSA; Carna Biosciences) (60 μL) was added to each well. The entire reaction mixture was then applied to a LabChip3000 system (Caliper Life Science) and the product and substrate peptide peaks were separated and quantified.
(§4) The assay utilized was identical to that of the single point inhibitory activity determination (MSA) but run in dose response. […] A solution of termination buffer (QuickScout Screening assist MSA; Carna Biosciences) (60 μL) was added to each well. The entire reaction mixture was then applied to a LabChip3000 system (Caliper Life Science) and the product and substrate peptide peaks were separated and quantified.

NEK2 = NEK2 (Homo sapiens, UniProt P51955)
Procedure: as §1, §2, §3, §4

LATS2 = LATS2 (Homo sapiens, UniProt Q9NRM7)
Procedure: as §1, §2, §3, §4

MAP4K2 = MAP4K2 (Homo sapiens, UniProt Q12851)
Procedure: as §1, §2, §3, §4

ROCK1 = ROCK1 (Homo sapiens, UniProt Q13464)
Procedure: as §1, §2, §3, §4

SGK = SGK (Homo sapiens, UniProt O00141)
Procedure: as §1, §2, §3, §4

SRC = SRC (Homo sapiens, UniProt P12931)
Procedure: as §1, §2, §3, §4

FGFR1(V561M) = FGFR1(V561M) (Homo sapiens, UniProt P11362, V561M)
Procedure: as §1, §2, §3, §4

BLK = BLK (Homo sapiens, UniProt P51451)
Procedure: as §1, §2, §3, §4

ABL = ABL (Homo sapiens, UniProt P00519)
Procedure: as §1, §2, §3, §4

EGFR = EGFR (Homo sapiens, UniProt P00533)
Procedure: as §1, §2, §3, §4

EPHB4 = EPHB4 (Homo sapiens, UniProt P54760)
Procedure: as §1, §2, §3, §4

Erk1 = Erk1 (Homo sapiens, UniProt P27361)
Procedure: as §1, §2, §3

DYRK1B = DYRK1B (Homo sapiens, UniProt Q9Y463)
Procedure: as §1, §2, §3, §4

EPHB2 = EPHB2 (Homo sapiens, UniProt P29323)
Procedure: as §1, §2, §3, §4

CDK3/CycE1 = CDK3/CycE1 (Homo sapiens, UniProt Q00526)
Procedure: as §1, §2, §3, §4

CK1ε = CK1ε (Homo sapiens, UniProt P49674)
Procedure: as §1, §2, §3

PDHK2 = PDHK2 (Homo sapiens, UniProt Q15119)
Procedure: as §1, §2, §3, §4

TIE2 = TIE2 (Homo sapiens, UniProt Q02763)
Procedure: as §1, §2, §3, §4

DYRK1A = DYRK1A (Homo sapiens, UniProt Q13627)
Procedure: as §1, §2, §3, §4

CaMK4 = CaMK4 (Homo sapiens, UniProt Q16566)
Procedure: as §1, §2, §3, §4

MARK1 = MARK1 (Homo sapiens, UniProt Q9P0L2)
Procedure: as §1, §2, §3, §4

PYK2 = PYK2 (Homo sapiens, UniProt Q14289)
Procedure: as §1, §2, §3

CK1δ = CK1δ (Homo sapiens, UniProt P48730)
PKCη = PKCη (Homo sapiens, UniProt P24723)
Procedure: as §1, §2, §3, §4

EGFR(L861Q) = EGFR(L861Q) (Homo sapiens, UniProt P00533, L861Q)
Procedure: as §1, §2, §3, §4

PBK = PBK (Homo sapiens, UniProt Q96KB5)
Procedure: as §1, §2, §3, §4

FYN = FYN (Homo sapiens, UniProt P06241)
Procedure: as §1, §2, §3, §4

EPHA2 = EPHA2 (Homo sapiens, UniProt P29317)
Procedure: as §1, §2, §3, §4

COT_Cascade = COT_Cascade (Homo sapiens, UniProt P41279)
Procedure: as §1, §2, §3, §4

BTK = BTK (Homo sapiens, UniProt Q06187)
Procedure: as §1, §2, §3, §4

HIPK4 = target: T1, HIPK4 (Homo sapiens, UniProt Q8NE63); test: Carna kinase panel; format: biochemical
T1 construct: purchased Carna Biosciences
Procedure: as §1, §2, §3

JAK3 = JAK3 (Homo sapiens, UniProt P52333)
Procedure: as §1, §2, §3, §4

SLK = SLK (Homo sapiens, UniProt Q9H2G2)
Procedure: as §1, §2, §3, §4

JNK1 = JNK1 (Homo sapiens, UniProt P45983)
Procedure: as §1, §2, §3, §4

PKCδ = PKCδ (Homo sapiens, UniProt Q05655)
Procedure: as §1, §2, §3, §4

FGFR1 = FGFR1 (Homo sapiens, UniProt P11362)
Procedure: as §1, §2, §3, §4

RON = RON (Homo sapiens, UniProt Q04912)
Procedure: as §1, §2, §3, §4

INSR = INSR (Homo sapiens, UniProt P06213)
MAPKAPK3 = MAPKAPK3 (Homo sapiens, UniProt Q16644)
Sequence of MAPKAPK3 (Q16644 whole entry): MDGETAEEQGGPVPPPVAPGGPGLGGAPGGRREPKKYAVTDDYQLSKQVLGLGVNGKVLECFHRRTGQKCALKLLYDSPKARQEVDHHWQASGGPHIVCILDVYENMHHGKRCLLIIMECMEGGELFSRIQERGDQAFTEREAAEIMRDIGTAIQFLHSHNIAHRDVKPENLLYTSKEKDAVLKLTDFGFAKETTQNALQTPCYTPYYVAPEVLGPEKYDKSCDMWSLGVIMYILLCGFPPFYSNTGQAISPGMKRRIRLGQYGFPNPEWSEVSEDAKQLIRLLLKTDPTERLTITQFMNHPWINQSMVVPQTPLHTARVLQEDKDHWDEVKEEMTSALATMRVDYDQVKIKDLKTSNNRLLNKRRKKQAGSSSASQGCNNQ
Procedure: as §1, §2, §3, §4

Sequence of CDK3/CycE1 (Q00526 whole entry): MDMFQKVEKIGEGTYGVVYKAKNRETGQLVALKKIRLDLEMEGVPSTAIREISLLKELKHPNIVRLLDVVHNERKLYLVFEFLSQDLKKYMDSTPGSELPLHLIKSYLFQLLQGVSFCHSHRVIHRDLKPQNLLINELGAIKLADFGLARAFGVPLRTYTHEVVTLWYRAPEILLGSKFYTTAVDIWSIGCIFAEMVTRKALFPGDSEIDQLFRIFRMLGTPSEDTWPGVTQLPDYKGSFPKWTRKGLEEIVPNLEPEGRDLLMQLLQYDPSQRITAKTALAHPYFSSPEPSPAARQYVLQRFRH
Sequence of CDK3/CycE1 (P24864 whole entry partner): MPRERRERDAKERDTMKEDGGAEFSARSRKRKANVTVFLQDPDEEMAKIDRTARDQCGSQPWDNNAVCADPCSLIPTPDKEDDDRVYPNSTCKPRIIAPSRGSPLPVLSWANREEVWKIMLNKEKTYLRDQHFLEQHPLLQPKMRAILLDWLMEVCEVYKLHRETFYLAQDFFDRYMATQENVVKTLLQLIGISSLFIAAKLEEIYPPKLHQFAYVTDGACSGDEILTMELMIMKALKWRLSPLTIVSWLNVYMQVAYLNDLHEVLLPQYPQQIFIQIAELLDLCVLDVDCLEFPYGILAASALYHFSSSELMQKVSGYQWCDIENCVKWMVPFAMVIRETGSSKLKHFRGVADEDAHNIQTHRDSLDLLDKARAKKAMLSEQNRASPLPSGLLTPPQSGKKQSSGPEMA
Sequence of JAK3 (P52333 whole entry): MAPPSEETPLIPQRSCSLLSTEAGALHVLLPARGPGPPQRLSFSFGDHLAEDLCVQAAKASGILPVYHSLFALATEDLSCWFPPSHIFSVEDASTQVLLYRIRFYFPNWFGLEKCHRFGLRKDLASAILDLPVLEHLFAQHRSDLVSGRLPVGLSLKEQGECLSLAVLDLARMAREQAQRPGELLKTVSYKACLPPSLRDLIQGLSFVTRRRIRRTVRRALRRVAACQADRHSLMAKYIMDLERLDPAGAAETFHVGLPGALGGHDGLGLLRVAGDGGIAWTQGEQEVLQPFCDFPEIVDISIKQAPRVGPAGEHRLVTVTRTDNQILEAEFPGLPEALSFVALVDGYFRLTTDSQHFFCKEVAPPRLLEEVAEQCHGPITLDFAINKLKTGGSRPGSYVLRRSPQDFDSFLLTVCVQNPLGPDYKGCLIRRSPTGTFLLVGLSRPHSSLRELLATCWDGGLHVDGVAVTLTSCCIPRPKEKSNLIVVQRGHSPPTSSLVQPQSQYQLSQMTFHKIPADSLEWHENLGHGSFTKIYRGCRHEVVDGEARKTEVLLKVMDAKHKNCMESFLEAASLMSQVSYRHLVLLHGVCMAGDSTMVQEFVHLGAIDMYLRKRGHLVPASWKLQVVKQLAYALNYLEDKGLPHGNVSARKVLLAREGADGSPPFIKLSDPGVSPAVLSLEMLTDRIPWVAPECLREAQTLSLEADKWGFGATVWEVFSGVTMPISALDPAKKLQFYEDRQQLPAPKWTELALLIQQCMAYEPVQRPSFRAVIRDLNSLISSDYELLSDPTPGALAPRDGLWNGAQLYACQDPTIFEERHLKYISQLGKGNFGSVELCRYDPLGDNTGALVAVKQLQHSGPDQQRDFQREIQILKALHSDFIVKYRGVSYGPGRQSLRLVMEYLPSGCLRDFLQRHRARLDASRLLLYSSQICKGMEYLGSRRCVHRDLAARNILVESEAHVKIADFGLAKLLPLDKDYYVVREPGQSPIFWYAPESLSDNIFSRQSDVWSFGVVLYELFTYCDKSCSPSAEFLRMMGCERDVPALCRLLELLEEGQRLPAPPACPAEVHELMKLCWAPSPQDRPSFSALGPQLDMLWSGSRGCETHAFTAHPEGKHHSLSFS
Sequence of SGK (O00141 whole entry): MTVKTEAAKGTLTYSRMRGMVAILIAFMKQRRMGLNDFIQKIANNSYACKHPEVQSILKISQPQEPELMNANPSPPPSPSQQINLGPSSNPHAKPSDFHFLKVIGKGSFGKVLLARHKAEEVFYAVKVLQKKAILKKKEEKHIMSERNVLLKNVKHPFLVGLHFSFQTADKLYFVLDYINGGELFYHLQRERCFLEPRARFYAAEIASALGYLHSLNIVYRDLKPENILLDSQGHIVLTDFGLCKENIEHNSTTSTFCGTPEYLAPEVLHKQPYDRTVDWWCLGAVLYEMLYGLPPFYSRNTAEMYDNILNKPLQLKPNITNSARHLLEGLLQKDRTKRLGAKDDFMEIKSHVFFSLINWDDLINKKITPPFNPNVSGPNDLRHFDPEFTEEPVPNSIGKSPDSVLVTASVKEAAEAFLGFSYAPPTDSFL
Sequence of MARK1 (Q9P0L2 whole entry): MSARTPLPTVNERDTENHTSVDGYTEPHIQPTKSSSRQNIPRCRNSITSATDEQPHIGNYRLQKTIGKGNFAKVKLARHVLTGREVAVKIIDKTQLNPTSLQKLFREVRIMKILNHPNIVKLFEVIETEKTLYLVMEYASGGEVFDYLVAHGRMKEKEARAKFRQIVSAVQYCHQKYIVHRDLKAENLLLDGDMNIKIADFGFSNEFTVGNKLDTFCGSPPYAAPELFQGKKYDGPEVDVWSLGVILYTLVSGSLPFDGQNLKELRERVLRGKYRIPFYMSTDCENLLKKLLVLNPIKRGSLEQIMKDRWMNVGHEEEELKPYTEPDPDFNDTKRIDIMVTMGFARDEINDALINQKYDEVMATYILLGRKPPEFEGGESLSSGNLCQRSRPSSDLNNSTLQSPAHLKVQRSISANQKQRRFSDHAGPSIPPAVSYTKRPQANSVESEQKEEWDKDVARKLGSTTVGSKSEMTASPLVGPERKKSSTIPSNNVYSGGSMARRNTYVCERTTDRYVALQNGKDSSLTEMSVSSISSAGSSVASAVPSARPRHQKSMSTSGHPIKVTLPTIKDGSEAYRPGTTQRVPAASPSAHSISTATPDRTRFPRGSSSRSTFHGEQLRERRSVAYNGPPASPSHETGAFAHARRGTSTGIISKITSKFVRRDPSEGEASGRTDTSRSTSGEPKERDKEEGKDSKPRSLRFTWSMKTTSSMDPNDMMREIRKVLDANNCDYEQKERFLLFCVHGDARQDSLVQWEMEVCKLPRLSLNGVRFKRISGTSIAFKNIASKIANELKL
Sequence of EPHB4 (P54760 16-987): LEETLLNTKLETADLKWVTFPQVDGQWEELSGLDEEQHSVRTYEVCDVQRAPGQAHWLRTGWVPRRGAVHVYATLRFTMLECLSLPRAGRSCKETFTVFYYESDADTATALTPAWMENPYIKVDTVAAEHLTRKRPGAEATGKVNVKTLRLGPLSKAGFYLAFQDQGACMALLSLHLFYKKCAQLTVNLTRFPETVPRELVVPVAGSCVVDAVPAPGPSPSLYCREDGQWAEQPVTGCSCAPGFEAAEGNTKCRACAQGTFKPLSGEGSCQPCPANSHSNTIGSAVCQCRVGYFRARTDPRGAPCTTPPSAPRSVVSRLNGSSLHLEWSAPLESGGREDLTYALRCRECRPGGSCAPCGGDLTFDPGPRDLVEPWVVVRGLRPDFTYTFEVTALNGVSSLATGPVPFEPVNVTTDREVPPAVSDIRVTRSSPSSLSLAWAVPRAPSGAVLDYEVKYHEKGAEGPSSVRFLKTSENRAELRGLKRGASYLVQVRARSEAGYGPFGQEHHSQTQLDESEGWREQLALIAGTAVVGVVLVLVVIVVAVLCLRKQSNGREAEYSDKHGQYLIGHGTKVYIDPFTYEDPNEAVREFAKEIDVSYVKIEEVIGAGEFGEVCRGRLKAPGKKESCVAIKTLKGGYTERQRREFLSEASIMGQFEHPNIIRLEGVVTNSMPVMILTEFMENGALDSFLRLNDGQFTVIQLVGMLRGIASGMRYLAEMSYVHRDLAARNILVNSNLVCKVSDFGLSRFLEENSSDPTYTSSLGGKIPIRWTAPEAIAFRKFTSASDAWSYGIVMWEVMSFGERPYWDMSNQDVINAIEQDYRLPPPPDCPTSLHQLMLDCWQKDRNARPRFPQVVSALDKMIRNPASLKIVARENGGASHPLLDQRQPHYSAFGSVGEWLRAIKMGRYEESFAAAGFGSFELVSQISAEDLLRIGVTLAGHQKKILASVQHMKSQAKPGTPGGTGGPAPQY
Sequence of NEK2 (P51955 whole entry): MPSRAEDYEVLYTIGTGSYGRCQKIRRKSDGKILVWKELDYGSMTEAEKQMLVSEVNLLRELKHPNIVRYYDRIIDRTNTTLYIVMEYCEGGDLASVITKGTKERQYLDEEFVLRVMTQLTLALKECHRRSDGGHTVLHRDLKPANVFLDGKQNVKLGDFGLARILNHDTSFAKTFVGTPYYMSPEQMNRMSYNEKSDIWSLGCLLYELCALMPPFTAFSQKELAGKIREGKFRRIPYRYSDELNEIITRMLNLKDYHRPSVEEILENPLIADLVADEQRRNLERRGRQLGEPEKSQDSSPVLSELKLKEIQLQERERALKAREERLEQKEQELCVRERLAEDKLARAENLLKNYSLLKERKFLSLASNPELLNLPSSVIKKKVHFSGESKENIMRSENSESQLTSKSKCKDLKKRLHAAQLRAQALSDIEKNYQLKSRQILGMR

For `CC[C@@]1(c2ccccc2)C2=C(CC(C)(C)CC2=O)Nc2n[nH]cc21` [BRD0705], the “% Inhibition at 10 μM” value (MLK3_Cascade) was 4.6%, the “% Inhibition at 10 μM” value (NEK2) was −4.5% and the “% Inhibition at 10 μM” value (LATS2) was −11.9%. The “% Inhibition at 10 μM” value (MAP4K2) was −0.7%, the “% Inhibition at 10 μM” value (ROCK1) was −2.0% and the “% Inhibition at 10 μM” value (SGK) was −4.4%. The “% Inhibition at 10 μM” value (SRC) was 3.2%, the “% Inhibition at 10 μM” value (FGFR1(V561M)) was −3.2% and the “% Inhibition at 10 μM” value (BLK) was −3.4%. For the same compound, the “% Inhibition at 10 μM” value (ABL) was 4.2%, the “% Inhibition at 10 μM” value (EGFR) was 0.3% and the “% Inhibition at 10 μM” value (EPHB4) was 14.7%. For the same compound, the “% Inhibition at 10 μM” value (Erk1) was −9.8%, the “% Inhibition at 10 μM” value (DYRK1B) was −6.1% and the “% Inhibition at 10 μM” value (EPHB2) was 6.5%. For the same compound, the “% Inhibition at 10 μM” value (CDK3/CycE1; CDK3/CycE1) was 52.8%, the IC50 (CDK3/CycE1; read-out: IC50 CDK3/CycE1) was 9.74 µM and the “% Inhibition at 10 μM” value (CK1ε) was −0.4%. For the same compound, the “% Inhibition at 10 μM” value (PDHK2) was −0.5%, the “% Inhibition at 10 μM” value (TIE2) was 0.3% and the “% Inhibition at 10 μM” value (DYRK1A) was −3.1%. The “% Inhibition at 10 μM” value (CaMK4) was −7.1%, the “% Inhibition at 10 μM” value (MARK1) was 3.1% and the “% Inhibition at 10 μM” value (PYK2) was 3.5%. The “% Inhibition at 10 μM” value (CK1δ) was −3.9%, the “% Inhibition at 10 μM” value (PKCη) was −4.0% and the “% Inhibition at 10 μM” value (EGFR(L861Q)) was −1.8%. For the same compound, the “% Inhibition at 10 μM” value (PBK) was −8.0%, the “% Inhibition at 10 μM” value (FYN) was 3.1% and the “% Inhibition at 10 μM” value (EPHA2) was −2.6%. For the same compound, the “% Inhibition at 10 μM” value (COT_Cascade) was 11.2%, the “% Inhibition at 10 μM” value (BTK) was 2.1% and the “% Inhibition at 10 μM” value (HIPK4) was 2.1%. The “% Inhibition at 10 μM” value (JAK3) was 4.1%, the “% Inhibition at 10 μM” value (SLK) was −10.7% and the “% Inhibition at 10 μM” value (JNK1) was −3.9%. For the same compound, the “% Inhibition at 10 μM” value (PKCδ) was −5.5%, the “% Inhibition at 10 μM” value (FGFR1) was −2.7% and the “% Inhibition at 10 μM” value (RON) was −3.8%. The “% Inhibition at 10 μM” value (INSR) was −1.4% and the “% Inhibition at 10 μM” value (MAPKAPK3) was −8.3%.
`CC(C)(C)Cc1[nH]nc2c1[C@](C)(c1ccccc1)C1=C(CC(C)(C)CC1=O)N2` [BRD3731] was tested, and the “% Inhibition 10 μM” value (MLK3_Cascade; 10 μM) was −0.8%, the “% Inhibition 10 μM” value (NEK2; 10 μM) was −2.1% and the “% Inhibition 10 μM” value (LATS2; 10 μM) was −3.0%. For the same compound, the “% Inhibition 10 μM” value (MAP4K2; 10 μM) was −7.5%, the “% Inhibition 10 μM” value (ROCK1; 10 μM) was 0.8% and the “% Inhibition 10 μM” value (SGK; 10 μM) was −0.4%. For the same compound, the “% Inhibition 10 μM” value (SRC; 10 μM) was 1.0%, the “% Inhibition 10 μM” value (FGFR1(V561M); 10 μM) was 0.3% and the “% Inhibition 10 μM” value (BLK; 10 μM) was 4.9%. For the same compound, the “% Inhibition 10 μM” value (ABL; 10 μM) was 11.4%, the “% Inhibition 10 μM” value (EGFR; 10 μM) was 10.0% and the “% Inhibition 10 μM” value (EPHB4; 10 μM) was 1.9%. For the same compound, the “% Inhibition 10 μM” value (Erk1; 10 μM) was 3.4%, the “% Inhibition 10 μM” value (DYRK1B; 10 μM) was 2.0% and the “% Inhibition 10 μM” value (EPHB2; 10 μM) was 6.4%. The IC50 (CDK3/CycE1; CDK3/CycE1) was over 10 µM, the “% Inhibition 10 μM” value (CDK3/CycE1; CDK3/CycE1, 10 μM) was 29.2% and the “Fold Selectivity” value (CDK3/CycE1; IC50 CDK3/CycE1 / IC50 GSK3β) was over 370 fold. The “% Inhibition 10 μM” value (CK1ε; 10 μM) was 28.0%, the “% Inhibition 10 μM” value (PDHK2; 10 μM) was 12.7% and the “% Inhibition 10 μM” value (TIE2; 10 μM) was 6.7%. The “% Inhibition 10 μM” value (DYRK1A; 10 μM) was 3.3%, the “% Inhibition 10 μM” value (CaMK4; 10 μM) was 12.4% and the “% Inhibition 10 μM” value (MARK1; 10 μM) was 9.3%. For the same compound, the “% Inhibition 10 μM” value (PYK2; 10 μM) was 5.3%, the “% Inhibition 10 μM” value (CK1δ; 10 μM) was 10.7% and the “% Inhibition 10 μM” value (PKCη; 10 μM) was −5.8%. For the same compound, the “% Inhibition 10 μM” value (EGFR(L861Q); 10 μM) was 2.7%, the “% Inhibition 10 μM” value (PBK; 10 μM) was 0.6% and the “% Inhibition 10 μM” value (FYN; 10 μM) was −1.3%. The “% Inhibition 10 μM” value (EPHA2; 10 μM) was 3.2%, the “% Inhibition 10 μM” value (COT_Cascade; 10 μM) was 10.5% and the “% Inhibition 10 μM” value (BTK; 10 μM) was 0.3%. For the same compound, the “% Inhibition 10 μM” value (HIPK4; 10 μM) was 15.9%, the “% Inhibition 10 μM” value (JAK3; 10 μM) was 7.8% and the “% Inhibition 10 μM” value (SLK; 10 μM) was −1.8%. The “% Inhibition 10 μM” value (JNK1; 10 μM) was −6.0%, the “% Inhibition 10 μM” value (PKCδ; 10 μM) was 10.7% and the “% Inhibition 10 μM” value (FGFR1; 10 μM) was 2.3%. The “% Inhibition 10 μM” value (RON; 10 μM) was 2.3%, the “% Inhibition 10 μM” value (INSR; 10 μM) was −2.8% and the “% Inhibition 10 μM” value (MAPKAPK3; 10 μM) was 6.0%.
